Read-outs that look alike come from different tables or passages of the source.
Legend:
[1] = design: method as in PMID 15116058; details: coadministered with gemfibrozil; cited from earlier work
[2] = Phase 1 crossover study: rosuvastatin plasma pharmacokinetics; type: in vivo, human; details: for AUC(0-inf) / half-life / AUC(0-t) / Cmax: human, plasma, oral, 10 mg
Description: The primary objective was to evaluate the pharmacokinetics of oral rosuvastatin when administered alone and in combination with oral AZD5718. […] Each participant received 5 single-dose oral study treatments (A-E), with a minimum washout period of 7 days between each treatment period. Participants were randomly assigned to treatments in the order A, B, C, D, E or B, A, C, D, E. Treatments were: […] […] Participants fasted for at least 10 hours before treatment and for at least 4 hours after treatment. Participants receiving treatment E consumed a high-fat breakfast 30 minutes before treatment. Water was permitted as desired except within 1 hour of administration. […] Doses were taken with 240 mL of water. […] At a minimum, each analytical run included a calibration curve, a matrix blank, a control zero sample (matrix blank containing internal standard), a reagent blank, and duplicate quality control samples at 3 concentrations within the calibration range. […] Both assessments were well within the acceptance criteria. […] The pharmacokinetic analysis set for rosuvastatin included all participants who received both rosuvastatin treatments. […] Statistical analyses were performed by […] using SAS version 9.4. Rosuvastatin pharmacokinetics were analyzed using a mixed-effects model, with log-transformed AUC, AUC0-last, and Cmax as the response variables; treatment sequence, period, and treatment as fixed effects; and participant nested within treatment sequence as a random effect. […] LS mean differences and 90%CIs for the effect of formulation or food for log-transformed variables were back transformed to geometric mean ratios and presented as percentages with 90% CIs.

healthy volunteers = assay: Phase 1 crossover study: safety and tolerability (adverse events); type: in vivo, human; details: rosuvastatin 10 mg, fasted, n = 12
Description: Each participant received 5 single‐dose oral study treatments (A‐E), with a minimum washout period of 7 days between each treatment period.
The safety set included all participants who received treatment in the study and for whom any postdose safety data were available. Safety was assessed throughout the study by monitoring adverse events, vital signs (systolic and diastolic blood pressure, pulse rate, and body temperature), and electrocardiographic parameters and by conducting physical examinations and laboratory assessments (hematology, blood chemistry, and urinalysis).

[3] = tested on: patients with acute coronary syndrome; design: method as in PMID 20190281; details: cited from earlier work
[4] = tested on: patients with coronary artery disease; design: method as in earlier work; details: cited from earlier work
[5] = tested on: patients receiving statins; design: method as in PMID 28845751; details: cited from earlier work
[6] = tested on: patients with coronary artery disease; design: method as in PMID 28834471; details: cited from earlier work

For `CC(C)c1nc(N(C)S(C)(=O)=O)nc(-c2ccc(F)cc2)c1/C=C/[C@@H](O)C[C@@H](O)CC(=O)O` [Rosuvastatin, rosuvastatin], the “Increase in rosuvastatin AUC” value [1] is given as 2 fold, the “Increase in rosuvastatin Cmax” value [1] is given as 2 fold and the “Rosuvastatin AUC0-inf (relative bioavailability), ratio of geometric LS means” value ([2]; coadministered with AZD5718 200 mg vs alone, 90% CI 86%-116%) is given as 100%. For the same molecule, the “Rosuvastatin AUC0-last, ratio of geometric LS means” value ([2]; coadministered with AZD5718 200 mg vs alone, 90% CI 87%-106%) was 96%, the “Rosuvastatin Cmax, ratio of geometric LS means” value ([2]; coadministered with AZD5718 200 mg vs alone, 90% CI 107%-146%) was 125% and the “Increase in rosuvastatin Cmax” value ([2]; coadministration with AZD5718 tablets vs alone) was “about 25%”. It also gave an AUC(0-inf) ([2]; rosuvastatin 10 mg alone, fasted, n = 9, read-out: Rosuvastatin AUC0-inf, arithmetic mean (SD)) of 45.3 ng·h/mL, an AUC(0-inf) ([2]; rosuvastatin 10 mg alone, fasted, n = 9, read-out: Rosuvastatin AUC0-inf, geometric mean (%CV)) of 41 ng·h/mL and a half-life ([2]; rosuvastatin 10 mg alone, fasted, n = 9, read-out: Rosuvastatin t1/2 lambda z, arithmetic mean (SD) (converted)) of 16 h. It also gave a half-life ([2]; rosuvastatin 10 mg alone, fasted, n = 9, read-out: Rosuvastatin t1/2 lambda z, geometric mean (%CV) (converted)) of 14.7 h, an AUC(0-t) ([2]; rosuvastatin 10 mg alone, fasted, n = 12, read-out: Rosuvastatin AUC0-last, arithmetic mean (SD)) of 54.2 ng·h/mL and an AUC(0-t) ([2]; rosuvastatin 10 mg alone, fasted, n = 12, read-out: Rosuvastatin AUC0-last, geometric mean (%CV)) of 45.3 ng·h/mL. The Cmax ([2]; rosuvastatin 10 mg alone, fasted, n = 12, read-out: Rosuvastatin Cmax, arithmetic mean (SD)) was 5.56 ng/mL, the Cmax ([2]; rosuvastatin 10 mg alone, fasted, n = 12, read-out: Rosuvastatin Cmax, geometric mean (%CV)) was 4.59 ng/mL and the AUC(0-inf) ([2]; rosuvastatin 10 mg plus AZD5718 200-mg tablet, fasted, n = 10, read-out: Rosuvastatin AUC0-inf, arithmetic mean (SD)) was 56.9 ng·h/mL. It also gave an AUC(0-inf) ([2]; rosuvastatin 10 mg plus AZD5718 200-mg tablet, fasted, n = 10, read-out: Rosuvastatin AUC0-inf, geometric mean (%CV)) of 50.5 ng·h/mL, a half-life ([2]; rosuvastatin 10 mg plus AZD5718 200-mg tablet, fasted, n = 10, read-out: Rosuvastatin t1/2 lambda z, arithmetic mean (SD) (converted)) of 16.4 h and a half-life ([2]; rosuvastatin 10 mg plus AZD5718 200-mg tablet, fasted, n = 10, read-out: Rosuvastatin t1/2 lambda z, geometric mean (%CV) (converted)) of 16.5 h. The AUC(0-t) ([2]; rosuvastatin 10 mg plus AZD5718 200-mg tablet, fasted, read-out: Rosuvastatin AUC0-last, arithmetic mean (SD)) was 49.4 ng·h/mL, the AUC(0-t) ([2]; rosuvastatin 10 mg plus AZD5718 200-mg tablet, fasted, read-out: Rosuvastatin AUC0-last, geometric mean (%CV)) was 43.5 ng·h/mL and the Cmax ([2]; rosuvastatin 10 mg plus AZD5718 200-mg tablet, fasted, read-out: Rosuvastatin Cmax, arithmetic mean (SD)) was 6.74 ng/mL. For the same molecule, the Cmax ([2]; rosuvastatin 10 mg plus AZD5718 200-mg tablet, fasted, read-out: Rosuvastatin Cmax, geometric mean (%CV)) was 5.74 ng/mL, the “Rosuvastatin tmax, median (range)” value ([2]; rosuvastatin 10 mg alone, fasted, n = 12) was 5.00 (0.50‐6.00) h and the “Participants with influenza-like illness” value (healthy volunteers) was 0 n (%).

In the case of `C[C@H](C#Cc1ccc(Cc2ccc(F)cc2)s1)N(O)C(N)=O` [VIA‐2291], the “Left ventricular ejection fraction” value ([3]; dose-dependent) is listed as “improved left ventricular ejection fraction”, the “Appearance of new coronary lesions” value ([3]; phase 2) is listed as “prevented the appearance of new coronary lesions” and the “Leukotriene B4 production” value ([3]; phase 2) is listed as “reduced leukotriene B4 production”. The Noncalcified plaque volume ([3]; phase 2) was “lowered noncalcified plaque volume”.

For `CC(c1cc2ccccc2s1)N(O)C(N)=O` (centres unmarked) [zileuton], the “Flow-mediated dilation in the brachial artery” value [4] is listed as “improved flow‐mediated dilation” and the Leukotriene production [4] is listed as “reduced leukotriene production”.

For “canakinumab: anti-interleukin-1β antibody”, the “Hazard ratio, recurrent cardiovascular events vs placebo” value ([5]; P = .021) is listed as 0.85 and the “Rate of recurrent cardiovascular events” value ([5]; canakinumab together with statins, placebo and statins 4.50) is listed as 3.90 events per 100 person‐years.

B1: evolocumab: proprotein convertase subtilisin/kexin type 9-neutralizing antibody (antibody, chains of the INN, looked up, V domains shown)
VH: EVQLVQSGAEVKKPGASVKVSCKASGYTLTSYGISWVRQAPGQGLEWMGWVSFYNGNTNYAQKLQGRGTMTTDPSTSTAYMELRSLRSDDTAVYYCARGYGMDVWGQGTTVTVSS
VL: ESALTQPASVSGSPGQSITISCTGTSSDVGGYNSVSWYQQHPGKAPKLMIYEVSNRPSGVSNRFSGSKSGNTASLTISGLQAEDEADYYCNSYTSTSMVFGGGTKLTVL
For B1, the “Hazard ratio, recurrent cardiovascular events vs placebo” value ([6]; P < .001) is listed as 0.85, the “LDL cholesterol level, median” value ([6]; evolocumab together with statins) is listed as 30 mg/dL and the “Rate of recurrent cardiovascular events” value ([6]; evolocumab together with statins, placebo 11.3%) is listed as 9.8%.

From PMC7187334 (Clinical Pharmacology in Drug Development, 2019)
